Holding throughout (assay type): in vivo, Vietnamese minipigs
Assay [1] relates to acute porcine model of experimental cardiac tamponade. Nature of the assay: Macro-hemodynamic measurements in acute porcine model of experimental cardiac tamponade. The note with it: for central venous pressure: FIG. 2A; for global end-diastolic volume index: FIG. 2B; for superior mesenteric artery blood flow: FIG. 3A; for heart rate: FIG. 2C. As for the experimental part: Inbred Vietnamese minipigs of both sexes (n=19, weighing 24±3 kg) were fasted for twelve (12) hours preoperatively, but received water ad libitum. Anesthesia was induced with a mixture of ketamine (20 mg/kg) and xylazine (2 mg/kg) im and maintained with a continuous infusion of propofol (50 μL/min/kg iv; 6 mg/kg/hr). After endotracheal intubation, the animals were mechanically ventilated with the tidal volume set at 9±2 mL/kg, and the respiratory rate was adjusted to maintain the end-tidal pressure of CO2 and PaCO2 in the range of 35 to 45 mmHg. Positive end-expiratory pressure was not applied during the period of cardiac tamponade.
The animals were placed in a supine position on an electric heating pad for maintenance of body temperature between 36 and 37° C., and received an infusion of Ringer's lactate at a rate of 10 mL/kg/h during the experiment. The right femoral artery and jugular vein were cannulated for the measurement of mean arterial pressure (“MAP”) and cardiac output (“CO”) by thermodilution (PICCO catheters, PULSION Medical Systems, Germany), and for fluid or drug administration, respectively. […] An ultrasonic flow probe (Transonic Systems Inc., Ithaca, N.Y., U.S.A.) was placed around the exposed SMA to measure the mesenteric blood flow. In all protocols, the animals were monitored continuously, arterial blood gases were regularly checked (Cobas b121, Roche, Austria), and a period of 30 minutes was allowed for recovery from surgery.
The animals were randomly allocated to either of three experimental groups. Group 1 (n=6) served as the sham^-operated group to which the same time-frame and sampling conditions as in the groups of 2 (n=7) and 3 (n=6) were applied, but without causing cardiac tamponade. Left lateral thoracotomy was performed in all groups. In the groups which developed cardiac tamponade, namely, in the group not treated with AcPepA (herein also referred to as “non-treated group”) and the group treated with AcPepA (herein also referred to as “treated group”), a cannula was fixed into the pericardial cavity. A pericardial tamponade was induced for 60 minutes by the intrapericardial administration of colloid solution, while the mean artery pressure was kept in the interval of 40 to 45 mmHg. After elapse of this period, the fluid was removed from the pericardial cavity and the animals were monitored for 180 minutes post-tamponade. Group 3 (the treated group) was treated with AcPepA (a single administration of 4 mg/kg in 5 mL saline iv into the jugular vein in a 5-minute infusion) after 45 minutes of cardiac tamponade. The beginning of tamponade is denoting 0 minute. Vehicle (saline) administration was applied in the groups of 1 and 2 by the same protocol.
Central venous pressure (“CVP”) and blood flow signals were continuously monitored and automatically registered with a computerized data-acquisition system (SPELL Haemosys; Experimetria Ltd., Budapest, Hungary). Mean arterial pressure, cardiac output and heart rate were measured with the PICCO Plus monitoring system (PULSION Medical Systems, Germany) and the global end-diastolic volume index (“GEDI”) was calculated with the PICCO system. Incidentally, central venous pressure was measured in each animal to exclude the influence of these factors, in parallel with the standard ventilation and fluid replacement protocols

For assay [2], the system named is mucosal microcirculation of the small intestine. Nature of the assay: Intravital videomicroscopy of the intestinal microcirculation in porcine cardiac tamponade model. The note with it: end of the post-tamponade phase; AcPepA 4 mg/kg iv; FIG. 3B. As for the experimental part: (§1) The animals were randomly allocated to either of three experimental groups. Group 1 (n=6) served as the sham^-operated group to which the same time-frame and sampling conditions as in the groups of 2 (n=7) and 3 (n=6) were applied, but without causing cardiac tamponade. Left lateral thoracotomy was performed in all groups. In the groups which developed cardiac tamponade, namely, in the group not treated with AcPepA (herein also referred to as “non-treated group”) and the group treated with AcPepA (herein also referred to as “treated group”), a cannula was fixed into the pericardial cavity. […] After elapse of this period, the fluid was removed from the pericardial cavity and the animals were monitored for 180 minutes post-tamponade. […]
An intravital orthogonal polarization spectral imaging technique (Cytoscan A/R, Cytometrics, Philadelphia, Pa., USA) was used for noninvasive visualization of the mucosal microcirculation of the small intestine. […] A 10× objective lens was placed onto the serosal surface of the […], and microscopic images were recorded with an S-VHS video recorder 1 (Panasonic AG-TL 700, Matsushita Electric Ind. Co. Ltd, Osaka, Japan). Quantitative assessment of the microcirculatory parameters was performed off-line by frame-to-frame analysis of the videotaped images. […]

The subject of the next assay is histamine. Nature of the assay: Plasma histamine in porcine cardiac tamponade model. The note with it: 15 minutes of the post-tamponade phase; AcPepA 4 mg/kg iv; FIG. 4A. The procedure: as §1
(§2) Plasma concentrations of protein HMGB-1 were determined with a commercially available protein HMGB-1 ELISA kit (Shino-Test Corporation, Kanagawa, Japan). Plasma levels of big-endothelin, a 38 amino acid precursor protein of endothelin-1 (ET-1), were determined with a commercially available kit (Biochemica Hungaria Kft., Budapest, Hungary). Plasma histamine concentrations were determined by commercially available enzyme-linked immunoassay (Quantikine ultrasensitive EIA kit for histamine; Biomedica Hungaria Kft, Budapest, Hungary).

The test system of another assay is big-endothelin. Nature of the assay: Plasma big-endothelin in porcine cardiac tamponade model. The note with it: after cardiac tamponade; AcPepA 4 mg/kg iv; FIG. 4B. As for the experimental part: as §1, §2
The test system of another assay is protein HMGB-1. Nature of the assay: Plasma HMGB-1 in porcine cardiac tamponade model. The note with it: after cardiac tamponade; AcPepA 4 mg/kg iv; FIG. 4C. The procedure: as §1, §2
For another assay, the system named is myeloperoxidase. Nature of the assay: Small intestinal myeloperoxidase activity in porcine cardiac tamponade model. Conditions: end of the experiment; AcPepA 4 mg/kg iv; FIG. 5A. As for the experimental part:
as §1
The activity of myeloperoxidase, a marker of activation of polymorphonuclear leukocyte, was measured by using ileal biopsy samples according to the method of Kuebler et al. (for review see Kuebler W M, Abels C, Schuerer L, et al: Measurement of neutrophil content in brain and lung tissue by a modified myeloperoxidase assay. Int J Microcirc Clin Exp 1996; 16:89-97). […] Levels of myeloperoxidase were calculated via a calibration curve prepared with an myeloperoxidase standard (Sigma-Aldrich GmbH, Germany). […] Myeloperoxidase activities of such samples were measured as described above, and such data were referred to the protein content.

The test system of assay [3] is whole blood superoxide production. Nature of the assay: Whole blood superoxide production in porcine cardiac tamponade model. The note with it: early stage of the post-tamponade phase; AcPepA 4 mg/kg iv; FIG. 5B. The procedure: The animals were randomly allocated to either of three experimental groups. Group 1 (n=6) served as the sham^-operated group to which the same time-frame and sampling conditions as in the groups of 2 (n=7) and 3 (n=6) were applied, but without causing cardiac tamponade. Left lateral thoracotomy was performed in all groups. In the groups which developed cardiac tamponade, namely, in the group not treated with AcPepA (herein also referred to as “non-treated group”) and the group treated with AcPepA (herein also referred to as “treated group”), a cannula was fixed into the pericardial cavity. A pericardial tamponade was induced for 60 minutes by the intrapericardial administration of colloid solution, while the mean artery pressure was kept in the interval of 40 to 45 mmHg. After elapse of this period, the fluid was removed from the pericardial cavity and the animals were monitored for 180 minutes post-tamponade. […]
During the measurements, 10 μL whole blood was added to 1 mL Hank's solution (PAA Cell Culture Company) and the mixture was kept at 37° C. until assay. The chemiluminometric response was measured with a Lumat LB9507 luminometer (Berthold, Germany) during a 30 minute period after addition of 100 μL of lucigenin.

Where [4] appears, read: after relief of cardiac tamponade, AcPepA 4 mg/kg iv.
The mark [5] stands for this setting: during the period of cardiac tamponade, treated group vs sham-operated group.

Where no end group is shown, it is not given here.

The results in this text go back to patent US20160068571A1, “THERAPEUTIC AGENT FOR CARDIAC TAMPONADE” (Research Institute for Protein Science Co., priority 2013, published 2016).

In the case of “AcPepA: 17 amino acid peptide (Ala Ser Gly Ala Pro Ala Pro Gly Pro Ala Gly Pro Leu Arg Pro Met Phe), N-terminal alanine acetylated; C5A antagonist (Ac-ASGAPAPGPAGPLRPMF)”, the central venous pressure entry in assay [1] (setting [4]) was “significant high values as compared with in the non-treated group and also showed the same values as in the sham-operated group”; in assay [1] (setting [5]), “significant increase of central venous pressure”. The “global end-diastolic volume index” value is “significant high values as compared with in the non-treated group and also showed the same values as in the sham-operated group” in assay [1] (setting [4]); “significant decrease of the global end-diastolic volume index” in assay [1] (setting [5]). Moreover, the mean arterial pressure entry in assay [1] (after relief of tamponade, AcPepA 4 mg/kg iv single dose after 45 minutes of tamponade, FIG. 1A) is “significantly high values as compared with in the non-treated group and also showed the same values as in the sham-operated group”. Also, the cardiac output entry in assay [1] (after relief of tamponade, AcPepA 4 mg/kg iv, FIG. 1B) is listed as “not affected”. In addition, the “superior mesenteric artery blood flow” value is recorded as “increased significantly after relief of tamponade as compared with in the sham-operated group” in assay [1] (after relief of tamponade, AcPepA 4 mg/kg iv) and “significant decrease in the superior mesenteric artery blood flow” in assay [1] (setting [5]). Also, the “decline in cardiac output” value in assay [1] (during 60 minutes of cardiac tamponade, treated group (AcPepA 4 mg/kg iv after 45 minutes of tamponade), vs sham-operated group, FIG. 1B) worked out at 65%. In addition, the heart rate result was “significant increase in heart rate” in assay [1] (during cardiac tamponade, treated group vs sham-operated group) and “significant decrease in the post-tamponade period as compared with in the non-treated group” in assay [1] (post-tamponade period, AcPepA 4 mg/kg iv). Also, the “average red blood cell verocity” value in assay [2] was “increased significantly from the baseline level and also as compared with in the non-treated group”. Besides, the “histamine levels in blood plasma” value with histamine was “decreased significantly in the treated group as compared with in the non-treated group and showed the same values as in the sham-operated group”. For the same substance, the plasma big-endothelin levels result with big-endothelin was “low values as compared with in the non-treated group and also showed the same values as in the sham-operated group”. In addition, the “plasma levels of protein HMGB-1” value in the assay on protein HMGB-1 is “significant low values as compared with in the non-treated group and also showed the same values as in the sham-operated group”. Besides, the “myeloperoxidase activity in small intestine tissue samples (polymorphonuclear leukocyte accumulation)” value with myeloperoxidase was “significant low values in the treated group as compared with in the non-treated group and also showed the same values as in the sham-operated group”. Moreover, the “whole blood superoxide production” value in assay [3] was “low as compared with in the non-treated group and also showed the same values as in the sham-operated group”.
